Laboratory results: patent publication US7879861B2, “Combi-molecules having EGFR and DNA targeting properties” (priority 2005, dated 2011)
Values joined by “and” are separate entries in the source; they are usually repeats but may differ in a detail not shown here. Equal entries are not always repeated. “Also recorded” adds a separate entry of the source.

Experiments:
[1] = tested on: MDA-MB-468 cells; assay: Annexin V binding (apoptosis), flow cytometry; format: cell-based, human
Procedure: Annexin V Binding: Cells were grown in 6-well plates until confluence and then incubated with the compounds for 24 h, 48 and 72 h. The cells were then harvested, washed twice with PBS, and centrifuged. Cells (10^5) were treated with annexin V-FITC and propidium iodide (PI) using the Apoptosis Detection Kit (BD Bioscience Pharmingen, USA) and the supplier's protocol. Annexin V-FITC and PI binding were analyzed by flow cytometry. Data were collected using logarithmic amplification of both the FL1 (FITC) and FL2 (PI) channels. Quadrant analysis of co-ordinate dot plots was performed with CellQuest software. Unstained cells were used to adjust the photomultiplier voltage and for compensation setting adjustment in order to eliminate spectral overlap between the FL1 and FL2 signals.

[2] = Chemical stability of combi-molecules; format: physicochemical
[3] = tested on: human breast carcinoma MDA-MB-468; assay: In vivo efficacy, MDA-MB-468 implanted s.c.; parameters: species or system SCID mice
Procedure: In vivo studies: SCID mice were maintained as per McGill animal safety protocols. In a preliminary model, SCID mice housed in filtered cages were implanted subcutaneously (s.c.) with the human breast carcinoma MDA-MB-468 and treatment began when the tumors were palpable (8 mice/group). […] The tumor burdens were measured with a caliper and mice were weighed twice weekly. The study was later repeated with the MDA-MB-468 cells implanted in the mammary fat pad, a model that better mimics human breast carcinoma.

[4] = tested on: NIH3T3HER14 cells; assay: Growth factor-stimulated proliferation, SRB assay; format: cell-based, mouse; details: 72 h
Procedure: In vitro growth inhibition assay: To study the effect of the compounds on growth factor stimulated-proliferation, cells were grown to 70% of confluence in 48-well plates. They were subsequently washed twice with PBS, incubated in serum-free medium for 18 h and exposed to each drug+growth factors (EGF, TGFα, PDGF or serum) for 72 h. Cell growth was measured using the sulforhodamine B (SRB) assay (24). Briefly, following drug treatment, cells were fixed using 50 μl of cold trichloroacetic acid (50%) for 60 min at 4° C., washed five times with tap water, and stained for 30 min at room temperature with SRB (0.4%) and dissolved in acetic acid (0.5%). The plates were rinsed five times with 1% acetic acid and allowed to air dry. The resulting colored residue was dissolved in 200 μl of Tris base (10 mM), and the optical density read for each well at 450 nm using a Bio-Rad microplate reader (model 2550). […] Cell growth was measured using SRB assay as described previously.

[5] = Water solubility; format: physicochemical
[6] = tested on: MAPK (Erk1, 2); assay: EGF-stimulated MAPK phosphorylation in MDA-MB-468 cells (Western blot); format: cell-based, human; details: at concentrations as low as 1 μM
Procedure: (§1) Autophosphorylation assay: Inhibition of receptor autophosphorylation in viable cells was determined by anti-phosphotyrosine Western blots as previously described (19). […] Equal amounts of cell lysates were analyzed by Western blot using anti-phosphotyrosine antibodies. Membranes were stripped of anti-phosphotyrosine and reprobed with anti-EGFR or anti-erbB2 antibodies (NeoMarkers, Fremont, Calif.). To study whether an inhibition is reversible or not, duplicate sets of cells were treated with 2 μM of designated compound for 2 h. One set of cells was then stimulated with EGF. The other set of cells was washed free of the compound with warmed serum-free media, incubated for 2 h, washed again, incubated for another 2 h, and incubated for a further 4 h after a subsequent wash. This set of cells was then stimulated with EGF. Western blot was performed as previously described. […] The membrane was incubated with anti-phosphorylated MAPK (Erk1,2) or anti-Erk 1,2 antibodies (Cell Signaling Technology Inc., Beverly, Mass.).

[7] = biological target: EGFR (Homo sapiens, UniProt P00533); assay: Reversibility of EGFR autophosphorylation inhibition in MDA-MB-468 cells (washout, 8 h); format: cell-based; parameters: EGF-induced EGFR autophosphorylation in MDA-MB-468 cells; endogenous in cells; host or cells: MDA-MB-468 (ATCC)
EGFR, sequence (P00533 25-1210): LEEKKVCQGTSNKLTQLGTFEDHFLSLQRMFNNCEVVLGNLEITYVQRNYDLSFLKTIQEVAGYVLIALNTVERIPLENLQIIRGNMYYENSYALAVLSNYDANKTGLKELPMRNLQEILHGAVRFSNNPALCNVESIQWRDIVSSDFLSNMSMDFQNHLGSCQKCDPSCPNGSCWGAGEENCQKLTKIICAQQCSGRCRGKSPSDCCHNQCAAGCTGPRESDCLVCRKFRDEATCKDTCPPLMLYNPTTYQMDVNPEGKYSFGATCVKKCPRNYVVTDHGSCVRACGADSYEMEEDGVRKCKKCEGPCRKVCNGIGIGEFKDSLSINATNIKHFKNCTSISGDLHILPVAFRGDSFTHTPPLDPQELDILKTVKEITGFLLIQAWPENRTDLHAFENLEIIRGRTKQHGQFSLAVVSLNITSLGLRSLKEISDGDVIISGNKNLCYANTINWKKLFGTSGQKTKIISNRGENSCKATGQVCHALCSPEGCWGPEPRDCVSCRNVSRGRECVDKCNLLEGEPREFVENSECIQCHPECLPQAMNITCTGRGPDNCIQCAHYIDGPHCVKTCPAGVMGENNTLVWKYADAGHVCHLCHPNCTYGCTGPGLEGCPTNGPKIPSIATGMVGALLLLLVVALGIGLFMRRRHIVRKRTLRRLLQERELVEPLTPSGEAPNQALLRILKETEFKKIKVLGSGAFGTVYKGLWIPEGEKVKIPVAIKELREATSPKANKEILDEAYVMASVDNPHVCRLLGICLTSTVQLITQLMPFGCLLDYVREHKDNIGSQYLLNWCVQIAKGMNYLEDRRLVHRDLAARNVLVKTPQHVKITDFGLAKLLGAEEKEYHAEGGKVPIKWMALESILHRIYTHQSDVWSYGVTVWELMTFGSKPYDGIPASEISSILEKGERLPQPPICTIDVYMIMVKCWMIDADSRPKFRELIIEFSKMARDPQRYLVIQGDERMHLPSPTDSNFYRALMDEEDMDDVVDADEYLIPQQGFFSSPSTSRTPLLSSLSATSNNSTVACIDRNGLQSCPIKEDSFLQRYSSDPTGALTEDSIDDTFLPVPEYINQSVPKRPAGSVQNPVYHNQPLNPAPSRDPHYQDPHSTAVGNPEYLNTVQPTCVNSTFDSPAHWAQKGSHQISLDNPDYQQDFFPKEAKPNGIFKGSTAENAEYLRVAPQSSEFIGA
Procedure: To test this hypothesis, the reversibility assay described by Fry et al. (13) and Smaill et al. (14) was used, according to which the cells are treated with inhibitors (2 μM) for 2 h and then washed free of drug. After 8 h, EGF was added; after a 10-min incubation the cells were lysed, and the degree of EGFR autophosphorylation measured.

[8] = biological target: T1, erbB2 (Homo sapiens, UniProt P04626); assay: Heregulin-induced autophosphorylation in MDA-MB-453 cells (Western blot); format: cell-based; details: 2 h preincubation, heregulin 10 min
T1 construct: heregulin-induced autophosphorylation in MDA-MB-453 cells; endogenous in cells; host or cells: MDA-MB-453 (ATCC)
T1 sequence (P04626 23-1255): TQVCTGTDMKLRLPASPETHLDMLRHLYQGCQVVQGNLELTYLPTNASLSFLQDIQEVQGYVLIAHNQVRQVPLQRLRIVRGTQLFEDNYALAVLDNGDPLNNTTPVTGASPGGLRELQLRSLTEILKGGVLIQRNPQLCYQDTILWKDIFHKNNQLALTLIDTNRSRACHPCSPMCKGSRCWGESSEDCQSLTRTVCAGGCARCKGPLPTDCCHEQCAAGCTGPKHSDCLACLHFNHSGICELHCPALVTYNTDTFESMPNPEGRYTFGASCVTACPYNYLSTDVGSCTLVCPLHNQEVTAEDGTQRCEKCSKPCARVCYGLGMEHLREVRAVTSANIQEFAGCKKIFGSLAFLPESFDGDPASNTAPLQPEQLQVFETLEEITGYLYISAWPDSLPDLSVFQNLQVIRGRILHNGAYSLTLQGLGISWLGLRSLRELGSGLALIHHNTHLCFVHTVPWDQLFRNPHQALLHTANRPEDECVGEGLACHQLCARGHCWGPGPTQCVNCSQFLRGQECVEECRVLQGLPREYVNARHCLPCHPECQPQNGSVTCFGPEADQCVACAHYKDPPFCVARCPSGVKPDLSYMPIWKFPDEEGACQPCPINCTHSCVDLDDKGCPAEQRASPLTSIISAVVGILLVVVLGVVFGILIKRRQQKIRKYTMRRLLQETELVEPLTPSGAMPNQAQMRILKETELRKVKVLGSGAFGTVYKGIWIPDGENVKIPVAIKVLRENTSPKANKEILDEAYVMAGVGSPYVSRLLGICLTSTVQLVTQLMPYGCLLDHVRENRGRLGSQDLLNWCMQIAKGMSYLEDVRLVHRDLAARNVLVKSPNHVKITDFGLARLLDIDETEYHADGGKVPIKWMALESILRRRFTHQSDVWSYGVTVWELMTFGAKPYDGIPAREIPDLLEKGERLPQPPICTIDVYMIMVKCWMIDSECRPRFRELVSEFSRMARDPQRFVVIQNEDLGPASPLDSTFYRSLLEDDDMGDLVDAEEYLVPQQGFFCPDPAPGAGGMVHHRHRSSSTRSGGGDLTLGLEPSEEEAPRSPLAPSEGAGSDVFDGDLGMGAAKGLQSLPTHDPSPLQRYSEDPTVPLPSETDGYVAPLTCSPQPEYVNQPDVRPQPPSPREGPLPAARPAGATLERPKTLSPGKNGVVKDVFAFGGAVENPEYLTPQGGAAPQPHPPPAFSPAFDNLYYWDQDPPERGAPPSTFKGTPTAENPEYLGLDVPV
Procedure: as §1

[9] = tested on: MAPK (Erk1, 2); assay: Heregulin-stimulated MAPK phosphorylation in MDA-MB-453 cells (Western blot); format: cell-based, human
Procedure: as §1

[10] = tested on: DNA of MDA-MB-468 cells; assay: Alkaline comet assay for DNA damage; format: cell-based, human; details: 2 h drug exposure
Procedure: Alkaline Comet Assay for quantization of DNA damage: The alkaline comet assay was performed as described in previously published procedures (19, 20). The cells were exposed to drugs for 2 h, harvested with trypsin-EDTA and re-suspended in PBS. Cell suspensions were diluted to approximately 10^6 cells, and mixed with agarose (1%) in PBS at 37° C. in a 1:10 dilution. The gels were cast on Gelbond strips (Mandel Scientific, Canada) using gel casting chambers and then immediately placed into a lysis buffer [2.5 M NaCl, 0.1 M tetra-sodium EDTA, 10 mM Tris-base and 1% (v/v) Triton X-100, pH 10.0]. After being kept on ice for 30 min, the gels were gently rinsed with distilled water and immersed in a second lysis buffer (2.5 M NaCl, 0.1 M tetrasodium EDTA, 10 mM Tris-base) containing 1 mg/ml proteinase K for 60 min at 37° C. Thereafter, the gels were rinsed with distilled water, incubated in alkaline electrophoresis buffer for 30 min at 37° C., and electrophoresed at 19 V for 20 min. […] Comets were visualized at 330× magnification and DNA damage was quantitated using the Tail Moment parameter (i.e., the distance between the barycenter of the head and the tail of the comet multiplied by the percentage of DNA within the tail of the comet). A minimum of 50 cell/comets were analyzed for each sample, using ALKOMET version 3.1 image analysis software.

ClCCNc1ccc2ncnc(Nc3cccc(Br)c3)c2c1 [ZR2002]
concentration at which detectable levels of apoptosis start [1]: 5 µM | chemical stability (in words) [2]: stable compound that does not self-alkylate | in vivo antitumor activity ([3]; 50 mg/kg i.p. every 3-4 days, one month, s.c. tumors, p<0.001 vs vehicle): modest; also recorded: moderate antiproliferative activity | tolerated dose ([3]; SCID mice, i.p.): 50 mg/kg | EGF or TGFα-induced proliferation [4]: selectively blocking | inhibition at 1 µM ([4]; Mus musculus, at 1 μM, read-out: inhibition of PDGF-stimulated growth): 100% | inhibition at 10 µM ([4]; Mus musculus, at concentrations >10 μM, read-out: inhibition of serum-stimulated growth): 100% | inhibition at 0.1 µM ([4]; Mus musculus, at concentrations as low at 0.1 μM, read-out: inhibition of EGF-stimulated growth): 100% | water solubility (in words) [5]: reduced water solubility | inhibition of EGF-stimulated phosphorylation of MAPK [6]: 100% | mode of EGFR inhibition (reversible / irreversible) [7]: irreversible inhibitor of EGFR | EGF-dependent EGFR autophosphorylation immediately after drug exposure ([7]; 2 μM, 2 h): completely suppressed | IC50 [8]: ~0.23 µM and 0.236 µM | heregulin-stimulated MAPK phosphorylation [9]: blocked heregulin-stimulated MAPK phosphorylation | DNA damage (tail moment), in words [10]: damages DNA in a dose dependent manner | concentration inducing significant DNA damage [10]: 10 µM
